Patent US8697641B2, “4-amino-4-oxobutanoyl peptide cyclic analogues, inhibitors of viral replication” (Achillion Pharmaceuticals, Inc., priority 2008, dated 2014)

System: Hepatitis C replicon
Assay: HCV replicon assay (NPT ELISA readout) in Huh-7 replicon-containing cells
Assay type: cell-based, Hepatitis C virus
Conditions: Hepatitis C virus, 72 h; HCV replicon in Huh-7 cells, three days incubation
Procedure, shortened: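 Huh-7 cells carrying a neo-containing HCV subgenomic replicon (NS3-NS5B) were plated overnight, then exposed to compound (generally 6 concentrations, 10 to 0.03 μM) for three days at 37 °C. Replication was read as NPT level by captured ELISA; interferon alpha served as positive control.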

**Q.** How did the EC50 turn out when COc1ccc2c(O[C@@H]3C[C@H]4C(=O)N[C@]5(C(=O)NS(=O)(=O)C6CC6)C[C@H]5/C=C\CCCCC[C@H](CC(=O)N5CCC(C(F)(F)F)CC5)C(=O)N4C3)nc(-c3ccccn3)cc2c1Cl [Compound 132, (2R,6R,14aR,16aS,Z)-2-(5-chloro-6-methoxy-3-(pyridin-2-yl)isoquinolin-1-yloxy)-N-(cyclopropylsulfonyl)-5,16-dioxo-6-(2-oxo-2-(4-(trifluoromethyl)piperidin-1-yl)ethyl)-1,2,3,5,6,7,8,9,10,11, 13a,14,14a,15,16,16a-hexadecahydrocyclopropa [e]pyrrolo[1,2-a][1,4] diazacyclopentadecine-14a-carboxamide] was run?
**A.** < 1 µM

**Q.** For CO/N=C1\CN(C(=O)C[C@H]2CCCCC/C=C\[C@@H]3C[C@@]3(C(=O)NS(=O)(=O)C3CC3)NC(=O)[C@@H]3C[C@@H](Oc4cc(-c5ccccc5)nc5cc(OC)ccc45)CN3C2=O)CC1(C)CN (stereo partly drawn) [Compound 110, (2R,6R,14aR,16aS,Z)-6-(2-((Z)-3-(aminomethyl)-4-(methoxyimino)-3-methylpyrrolidin-1-yl)-2-oxoethyl)-N-(cyclopropylsulfonyl)-2-(7-methoxy-2-phenylquinolin-4-yloxy)-5,16-dioxo-1,2,3,5,6,7,8,9,10,11, 13a,14,14a,15,16,16a-hexadecahydrocyclopropa [e]pyrrolo[1,2-a][1,4] diazacyclopentadecine-14a-carboxamide], which EC50 is on record?
**A.** < 1 µM

**Q.** Which EC50 does the source give for O=C1N[C@]2(C(=O)NS(=O)(=O)C3CC3)C[C@H]2/C=C\CCCCC[C@H](CC(=O)N2CCC(F)(F)CC2)C(=O)N2C[C@H](Oc3cc(-c4ccccn4)nc4c5c(ccc34)OCC5)C[C@@H]12 [Compound 82, (2R,6R,14aR,16aS,Z)-N-(cyclopropylsulfonyl)-6-(2-(4,4-difluoropiperidin-1-yl)-2-oxoethyl)-5,16-dioxo-2-(2-(pyridin-2-yl)-8,9-dihydrofuro[2,3-h]quinolin-4-yloxy)-1,2,3,5,6,7,8,9,10,11, 13a,14,14a,15,16,16a-hexadecahydrocyclopropa [e]pyrrolo[1,2-a][1,4] diazacyclopentadecine-14a-carboxamide] here?
**A.** < 1 µM

**Q.** How did the EC50 turn out when COc1ccc2c(O[C@@H]3C[C@H]4C(=O)N[C@]5(C(=O)NS(=O)(=O)C6CC6)C[C@H]5/C=C\CCCCC[C@H](CC(=O)N5C(C)CCCC5C)C(=O)N4C3)cc(-c3ccccc3)nc2c1 (stereo partly drawn) [Compound 69, (2R,6R,13aS, 14aR,16aS,Z)-N-(cyclopropylsulfonyl)-6-(2-(2,6-dimethylpiperidin-1-yl)-2-oxoethyl)-2-(7-methoxy-2-phenylquinolin-4-yloxy)-5,16-dioxo-1,2,3,5,6,7,8,9,10,11, 13a,14,14a,15,16,16a-hexadecahydrocyclopropa [e]pyrrolo[1,2-a][1,4] diazacyclopentadecine-14a-carboxamide] was run?
**A.** < 1 µM

**Q.** For COc1ccc2c(O[C@@H]3C[C@H]4C(=O)NC(C)(C(=O)O)C/C=C\CCCCC[C@H](CC(=O)N5CCCCC5)C(=O)N4C3)cc(-c3ccccc3)nc2c1 (stereo partly drawn) [Compound 64, (12R,16R,17aS,Z)-16-(7-methoxy-2-phenylquinolin-4-yloxy)-3-methyl-1,13-dioxo-12-(2-oxo-2-(piperidin-1-yl)ethyl)-2,3,4,7,8,9,10,11, 12,13,15,16,17,17a-tetradecahydro-1H-pyrrolo[1,2-a][1,4] diazacyclopentadecine-3-carboxylic acid], which EC50 is on record?
**A.** 1 to 10 µM

**Q.** With COc1ccc2c(O[C@@H]3C[C@H]4C(=O)N[C@]5(C(=O)NS(=O)(=O)C6CC6)C[C@H]5/C=C\CCCCC[C@H](CC(=O)N5CCC(F)CC5)C(=O)N4C3)cc(-c3ccccn3)nc2c1Cl [Compound 101, (2R,6R,14aR,16aS,Z)-2-(8-chloro-7-methoxy-2-(pyridin-2-yl)quinolin-4-yloxy)-N-(cyclopropylsulfonyl)-6-(2-(4-fluoropiperidin-1-yl)-2-oxoethyl)-5,16-dioxo-1,2,3,5,6,7,8,9,10,11, 13a,14,14a,15,16,16a-hexadecahydrocyclopropa [e]pyrrolo[1,2-a][1,4] diazacyclopentadecine-14a-carboxamide] as the molecule, how does the EC50 read?
**A.** < 1 µM

**Q.** Which EC50 does the source give for COc1ccc2c(O[C@@H]3C[C@H]4C(=O)N[C@]5(C(=O)NS(=O)(=O)C6CC6)C[C@H]5/C=C\CCCCC[C@H](CC(=O)OC(C)(C)C)C(=O)N4C3)cc(-c3ccccn3)nc2c1Cl [Compound 88, tert-butyl 2-((2R,6R,14aR, 16aS,Z)-2-(8-chloro-7-methoxy-2-(pyridin-2-yl)quinolin-4-yloxy)-14a-(cyclopropylsulfonyl-carbamoyl)-5,16-dioxo-1,2,3,5,6,7,8,9,10,11, 13a,14,14a,15,16,16a-hexadecahydrocyclopropa [e]pyrrolo[1,2-a][1,4]diazacyclopentadecin-6-yl)acetate] here?
**A.** < 1 µM

**Q.** Which EC50 does the source give for COc1ccc2c(O[C@@H]3C[C@H]4C(=O)N[C@]5(C(=O)NS(=O)(=O)C6CC6)C[C@H]5/C=C\CCCCC[C@H](CC(=O)N5CCOC(C)C5)C(=O)N4C3)cc(-c3ccccc3)nc2c1 (stereo partly drawn) [Compound 75, (2R,6R,13aS, 14aR,16aS,Z)-N-(cyclopropylsulfonyl)-2-(7-methoxy-2-phenylquinolin-4-yloxy)-6-(2-(2-methylmorpholino)-2-oxoethyl)-5,16-dioxo-1,2,3,5,6,7,8,9,10,11, 13a,14,14a,15,16,16a-hexadecahydrocyclopropa [e]pyrrolo[1,2-a][1,4] diazacyclopentadecine-14a-carboxamide] here?
**A.** < 1 µM

**Q.** Which EC50 does the source give for COc1ccc2c(O[C@@H]3C[C@H]4C(=O)N[C@]5(C(=O)NS(=O)(=O)C6CC6)C[C@H]5/C=C\CCCCC[C@H](CC(=O)N5CCCC(F)(F)C5)C(=O)N4C3)cc(-c3csc(C(C)C)n3)nc2c1C [Compound 133, (2R,6R,14aR,16aS,Z)-N-(cyclopropylsulfonyl)-6-(2-(3,3-difluoropiperidin-1-yl)-2-oxoethyl)-2-(2-(2-isopropylthiazol-4-yl)-7-methoxy-8-methylquinolin-4-yloxy)-5,16-dioxo-1,2,3,5,6,7,8,9,10,11, 13a,14,14a,15,16,16a-hexadecahydrocyclopropa [e]pyrrolo[1,2-a][1,4] diazacyclopentadecine-14a-carboxamide] here?
**A.** < 1 µM

**Q.** For COc1ccc2c(O[C@@H]3C[C@H]4C(=O)N[C@]5(C(=O)NS(=O)(=O)C6CC6)C[C@H]5/C=C\CCCCC[C@H](CC(=O)N5CCCCC5)C(=O)N4C3)cc(-c3ccccc3)cc2c1 [Compound 120, (2R,6R,14aR,16aS,Z)-N-(cyclopropylsulfonyl)-2-(6-methoxy-3-phenylnaphthalen-1-yloxy)-5,16-dioxo-6-(2-oxo-2-(piperidin-1-yl)ethyl)-1,2,3,5,6,7,8,9,10,11, 13a,14,14a,15,16,16a-hexadecahydrocyclopropa [e]pyrrolo[1,2-a][1,4] diazacyclopentadecine-14a-carboxamide], which EC50 is on record?
**A.** < 1 µM

**Q.** Which EC50 does the source give for CCOC(=O)[C@]12C[C@@H]1/C=C\CCCCC[C@H](CC(=O)OC(C)(C)C)C(=O)N1C[C@H](Oc3cc(-c4ccccc4)nc4cc(OC)ccc34)C[C@H]1C(=O)N2 [Compound 47, (2R,6R,13aR,14aS, 16aS,Z)-ethyl 6-(2-tert-butoxy-2-oxoethyl)-2-(7-methoxy-2-phenylquinolin-4-yloxy)-5,16-dioxo-1,2,3,5,6,7,8,9,10,11, 13a,14,14a,15,16,16a-hexadecahydrocyclopropa [e]pyrrolo[1,2-a][1,4] diazacyclopentadecine-14a-carboxylate] here?
**A.** < 1 µM

**Q.** Which EC50 does the source give for COc1ccc2c(O[C@@H]3C[C@H]4C(=O)N[C@]5(C(=O)NS(=O)(=O)C6CC6)C[C@H]5/C=C\CCCCC[C@H](CC(=O)N5CCN(C(=O)N6CCCC6)CC5)C(=O)N4C3)cc(-c3ccccc3)nc2c1 [Compound 85, (2R,6R,14aR,16aS,Z)-N-(cyclopropylsulfonyl)-2-(7-methoxy-2-phenylquinolin-4-yloxy)-5,16-dioxo-6-(2-oxo-2-(4-(pyrrolidine-1-carbonyl)piperazin-1-yl)ethyl)-1,2,3,5,6,7,8,9,10,11, 13a,14,14a,15,16,16a-hexadecahydrocyclopropa [e]pyrrolo[1,2-a][1,4] diazacyclopentadecine-14a-carboxamide] here?
**A.** < 1 µM

**Q.** For COc1ccc2c(O[C@@H]3C[C@H]4C(=O)N[C@]5(C(=O)NS(=O)(=O)C6CC6)C[C@H]5/C=C\CCCCC[C@H](CC(=O)NC5CCCC5)C(=O)N4C3)cc(-c3ccccc3)nc2c1 [Compound 73, (2R,6R,13aS,14aR, 16aS,Z)-6-(2-(cyclopentylamino)-2-oxoethyl)-N-(cyclopropylsulfonyl)-2-(7-methoxy-2-phenylquinolin-4-yloxy)-5,16-dioxo-1,2,3,5,6,7,8,9,10,11, 13a,14,14a,15,16,16a-hexadecahydrocyclopropa [e]pyrrolo[1,2-a][1,4] diazacyclopentadecine-14a-carboxamide], which EC50 is on record?
**A.** < 1 µM

**Q.** For O=C1N[C@]2(C(=O)NS(=O)(=O)C3CC3)CC2/C=C\CCCCC[C@H](CC(=O)N2CCC(C(F)(F)F)CC2)C(=O)N2C[C@H](OC(=O)N3CCc4ccccc4C3)C[C@@H]12 (stereo partly drawn) [Compound 115, (2R,6R,14aR, 16aS,Z)-14a-(cyclopropylsulfonyl-carbamoyl)-5,16-dioxo-6-(2-oxo-2-(4-(trifluoromethyl)piperidin-1-yl)ethyl)-1,2,3,5,6,7,8,9,10,11, 13a,14,14a,15,16,16a-hexadecahydrocyclopropa [e]pyrrolo[1,2-a][1,4] diazacyclopentadecin-2-yl 3,4-dihydroisoquinoline-2(1H)-carboxylate], which EC50 is on record?
**A.** < 1 µM

**Q.** COc1ccc2c(O[C@@H]3C[C@H]4C(=O)N[C@]5(C(=O)NS(=O)(=O)C6CC6)C[C@H]5/C=C\CCCCC[C@H](CC(=O)N5CCCC(F)(F)C5)C(=O)N4C3)nc(-c3ccccn3)cc2c1Cl [Compound 130, (2R,6R,14aR,16aS,Z)-2-(5-chloro-6-methoxy-3-(pyridin-2-yl)isoquinolin-1-yloxy)-N-(cyclopropylsulfonyl)-6-(2-(3,3-difluoropiperidin-1-yl)-2-oxoethyl)-5,16-dioxo-1,2,3,5,6,7,8,9,10,11, 13a,14,14a,15,16,16a-hexadecahydrocyclopropa [e]pyrrolo[1,2-a][1,4] diazacyclopentadecine-14a-carboxamide] was tested. Which EC50 did it give?
**A.** < 1 µM
